Data taken from PubChem BioAssay (NCI).
Several values for one entry are separate records, joined by “and”; a condition that tells them apart may be missing. Identical values can stand only once.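 Compound exposure: 48 hours, 5 concentrations, 96-well plates. Here, GI50 denotes the concentration required for 50% inhibition of growth. Definition used: TGI = concentration required for complete inhibition of growth.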

Key:
Test in all cases: NCI anticancer screen, dose series, 48 h
786-0 renal = system: 786-0 renal
A498 renal = system: A498 renal
A549 NSCLC = system: A549 NSCLC
ACHN renal = system: ACHN renal
BT-549 breast = system: BT-549 breast
CAKI-1 renal = system: CAKI-1 renal
CCRF-CEM leukemia = system: CCRF-CEM leukemia
COLO 205 colon = system: COLO 205 colon
DU-145 prostate = system: DU-145 prostate
EKVX NSCLC = system: EKVX NSCLC
HCC-2998 colon = system: HCC-2998 colon
HCT-116 colon = system: HCT-116 colon
HCT-15 colon = system: HCT-15 colon
HL-60(TB) leukemia = system: HL-60(TB) leukemia
HOP-62 NSCLC = system: HOP-62 NSCLC
HOP-92 NSCLC = system: HOP-92 NSCLC
HS 578T breast = system: HS 578T breast
HT29 colon = system: HT29 colon
IGROV1 ovarian = system: IGROV1 ovarian
K-562 leukemia = system: K-562 leukemia
KM12 colon = system: KM12 colon
LOX IMVI melanoma = system: LOX IMVI melanoma
M14 melanoma = system: M14 melanoma
MALME-3M melanoma = system: MALME-3M melanoma
MCF7 breast = system: MCF7 breast
MDA-MB-231 breast = system: MDA-MB-231 breast
MDA-MB-435 = system: MDA-MB-435
MOLT-4 leukemia = system: MOLT-4 leukemia
NCI-H226 lung = system: NCI-H226 lung
NCI-H23 lung = system: NCI-H23 lung
NCI-H460 lung = system: NCI-H460 lung
NCI-H522 lung = system: NCI-H522 lung
NCI/ADR-RES ovarian = system: NCI/ADR-RES ovarian
OVCAR-3 ovarian = system: OVCAR-3 ovarian
OVCAR-4 ovarian = system: OVCAR-4 ovarian
OVCAR-5 ovarian = system: OVCAR-5 ovarian
OVCAR-8 ovarian = system: OVCAR-8 ovarian
PC-3 prostate = system: PC-3 prostate
RPMI-8226 leukemia = system: RPMI-8226 leukemia
RXF 393 renal = system: RXF 393 renal
SF-268 CNS = system: SF-268 CNS
SF-295 CNS = system: SF-295 CNS
SF-539 CNS = system: SF-539 CNS
SK-MEL-2 melanoma = system: SK-MEL-2 melanoma
SK-MEL-28 melanoma = system: SK-MEL-28 melanoma
SK-MEL-5 melanoma = system: SK-MEL-5 melanoma
SK-OV-3 ovarian = system: SK-OV-3 ovarian
SN12C renal = system: SN12C renal
SNB-19 CNS = system: SNB-19 CNS
SNB-75 CNS = system: SNB-75 CNS
SR leukemia = system: SR leukemia
SW-620 colon = system: SW-620 colon
T-47D breast = system: T-47D breast
TK-10 renal = system: TK-10 renal
U251 CNS = system: U251 CNS
UACC-257 melanoma = system: UACC-257 melanoma
UACC-62 melanoma = system: UACC-62 melanoma
UO-31 renal = system: UO-31 renal

## CNc1ncc2cc(-c3cc(NC(=O)NCCC(C)(C)C)c(F)cc3C)c(C)nc2n1
786-0 renal
  GI50: 811 nM and 810 nM
  TGI: > 100 µM
A498 renal
  GI50: 149 nM and 167 nM
  TGI: 743 nM and 650 nM
A549 NSCLC
  GI50: 754 nM and 598 nM
  TGI: > 100 µM
ACHN renal
  GI50: 198 nM and 262 nM
  TGI: > 24.6 µM
BT-549 breast
  GI50: 3.29 µM and 2.49 µM
  TGI: > 100 µM
CAKI-1 renal
  GI50: 437 nM and 200 nM
  TGI: > 100 µM
CCRF-CEM leukemia
  GI50: 10.1 µM and > 9.36 µM
  TGI: > 100 µM
COLO 205 colon
  GI50: < 13.3 nM and 13.5 nM
  TGI: 1.38 µM and > 4.3 µM
DU-145 prostate
  GI50: 535 nM and 685 nM
  TGI: > 100 µM
EKVX NSCLC
  GI50: 2540 nM and 1380 nM
  TGI: 99.6 µM and > 10 µM
HCC-2998 colon
  GI50: 283 nM and 207 nM
  TGI: > 77.2 µM
HCT-116 colon
  GI50: 80.5 nM and 85.8 nM
  TGI: 11.8 µM and > 10 µM
HCT-15 colon
  GI50: 407 nM and 429 nM
  TGI: > 64.8 µM
HL-60(TB) leukemia
  GI50: 66.8 nM and 81.1 nM
  TGI: 17.8 µM and > 10 µM
HOP-62 NSCLC
  GI50: 195 nM and 298 nM
  TGI: 12.7 µM and > 10 µM
HOP-92 NSCLC
  GI50: 57.1 nM and 90.3 nM
  TGI: 423 nM and 511 nM
HS 578T breast
  GI50: 839 nM and 582 nM
  TGI: 33.5 µM and > 10 µM
HT29 colon
  GI50: 17.7 nM and 19.4 nM
  TGI: > 41.5 µM
IGROV1 ovarian
  GI50: 179 nM and 151 nM
K-562 leukemia
  GI50: 227 nM and 330 nM
  TGI: > 100 µM
KM12 colon
  GI50: 405 nM and 448 nM
  TGI: > 100 µM
LOX IMVI melanoma
  GI50: 102 nM and 57.3 nM
  TGI: 2230 nM and 2000 nM
M14 melanoma
  GI50: < 10 nM and 10.5 nM
MALME-3M melanoma
  GI50: < 10 nM and 4.62 nM
  TGI: < 11 nM and 52.2 nM
MCF7 breast
  GI50: 4.98 µM and 8.58 µM
  TGI: > 100 µM
MDA-MB-231 breast
  GI50: 61.9 nM and 156 nM
  TGI: 1670 nM and 1410 nM
MDA-MB-435
  GI50: 29.9 nM and 38.9 nM
  TGI: > 39.4 µM
MOLT-4 leukemia
  GI50: 688 nM and > 2450 nM
  TGI: > 69.7 µM
NCI-H226 lung
  GI50: 1110 nM and 298 nM
  TGI: > 100 µM
NCI-H23 lung
  GI50: 147 nM and 186 nM
  TGI: > 42.1 µM
NCI-H460 lung
  GI50: 473 nM and 332 nM
  TGI: > 100 µM
NCI-H522 lung
  GI50: 294 nM and 333 nM
  TGI: > 20.9 µM
NCI/ADR-RES ovarian
  GI50: 1500 nM and 1350 nM
  TGI: > 100 µM
OVCAR-3 ovarian
  GI50: 1930 nM and 1890 nM
  TGI: > 100 µM
OVCAR-4 ovarian
  GI50: 543 nM and 785 nM
  TGI: > 100 µM
OVCAR-5 ovarian
  GI50: 76.1 nM and 83 nM
  TGI: > 100 µM
OVCAR-8 ovarian
  GI50: 512 nM and 515 nM
  TGI: > 100 µM
PC-3 prostate
  GI50: 17.4 µM and 6.93 µM
  TGI: > 100 µM
RPMI-8226 leukemia
  GI50: 907 nM and 685 nM
  TGI: > 52.6 µM
RXF 393 renal
  GI50: 1010 nM and 504 nM
  TGI: 5.99 µM and > 6.39 µM
SF-268 CNS
  GI50: 716 nM and 721 nM
  TGI: > 100 µM
SF-295 CNS
  GI50: 1560 nM and 1470 nM
  TGI: > 100 µM
SF-539 CNS
  GI50: 526 nM and 1050 nM
  TGI: 9.49 µM and > 10 µM
SK-MEL-2 melanoma
  GI50: 27.7 nM and 42.6 nM
  TGI: 143 nM and 265 nM
SK-MEL-28 melanoma
  GI50: < 10 nM and 10.1 nM
  TGI: 118 nM and 239 nM
SK-MEL-5 melanoma
  GI50: 458 nM and 309 nM
  TGI: 16.3 µM and > 10 µM
SK-OV-3 ovarian
  GI50: 359 nM and 431 nM
  TGI: 4.36 µM and 5.87 µM
SN12C renal
  GI50: 485 nM and 411 nM
  TGI: > 100 µM
SNB-19 CNS
  GI50: 2230 nM and 1550 nM
  TGI: > 100 µM
SNB-75 CNS
  GI50: 949 nM and 1040 nM
  TGI: 7.36 µM and 7.6 µM
SR leukemia
  GI50: 811 nM and 3130 nM
  TGI: > 75.2 µM
SW-620 colon
  GI50: 270 nM and 256 nM
  TGI: > 100 µM
T-47D breast
  GI50: 819 nM and 1510 nM
  TGI: 25.1 µM and > 10 µM
TK-10 renal
  GI50: 241 nM and 243 nM
  TGI: 5.07 µM and 6.79 µM
U251 CNS
  GI50: 572 nM and 474 nM
  TGI: 31.6 µM and > 10 µM
UACC-257 melanoma
  GI50: 13.9 nM
  TGI: 0.0555 µM
UACC-62 melanoma
  GI50: < 10 nM and 5.85 nM
  TGI: 88.1 nM and 121 nM
UO-31 renal
  GI50: 143 nM and 117 nM
  TGI: > 67.7 µM

## CN1CCN(c2ccc(Nc3ncc4cc5n(c4n3)C3(CCCCC3)CNC5=O)nc2)CC1
786-0 renal
  GI50: 1530 nM
  TGI: 17 µM
A498 renal
  GI50: 170 nM
  TGI: 1800 nM
A549 NSCLC
  GI50: 1470 nM
  TGI: 16.2 µM
ACHN renal
  GI50: 847 nM
  TGI: 12.6 µM
BT-549 breast
  GI50: 3.35 µM
  TGI: 8.97 µM
CAKI-1 renal
  GI50: 397 nM
  TGI: 14.3 µM
CCRF-CEM leukemia
  GI50: 0.203 µM
  TGI: 3.6 µM
COLO 205 colon
  GI50: 63.2 nM
  TGI: 11.3 µM
DU-145 prostate
  GI50: 3430 nM
  TGI: 17.2 µM
EKVX NSCLC
  GI50: 2140 nM
  TGI: 14.1 µM
HCC-2998 colon
  GI50: 6140 nM
  TGI: 30.4 µM
HCT-116 colon
  GI50: 1810 nM
  TGI: 11 µM
HCT-15 colon
  GI50: 2160 nM
  TGI: 13.2 µM
HL-60(TB) leukemia
  GI50: 65.1 nM
  TGI: 3.04 µM
HOP-62 NSCLC
  GI50: 1060 nM
  TGI: 12.8 µM
HOP-92 NSCLC
  GI50: 1270 nM
  TGI: 18200 nM
HS 578T breast
  GI50: 1710 nM
  TGI: 8.8 µM
HT29 colon
  GI50: 397 nM
  TGI: 19.2 µM
IGROV1 ovarian
  GI50: 2420 nM
  TGI: 16.4 µM
K-562 leukemia
  GI50: 2170 nM
  TGI: 18.4 µM
KM12 colon
  GI50: 1320 nM
  TGI: 21.9 µM
LOX IMVI melanoma
  GI50: 589 nM
  TGI: 10400 nM
M14 melanoma
  GI50: 1760 nM
  TGI: 11.7 µM
MALME-3M melanoma
  GI50: 866 nM
  TGI: 15400 nM
MCF7 breast
  GI50: 0.109 µM
  TGI: 14.6 µM
MDA-MB-231 breast
  GI50: 1340 nM
  TGI: 10500 nM
MDA-MB-435
  GI50: 2020 nM
  TGI: 24 µM
MOLT-4 leukemia
  GI50: 279 nM
  TGI: 3.58 µM
NCI-H226 lung
  GI50: 1270 nM
  TGI: 11.3 µM
NCI-H23 lung
  GI50: 2190 nM
  TGI: 15.7 µM
NCI-H460 lung
  GI50: 1390 nM
  TGI: 10.6 µM
NCI-H522 lung
  GI50: 9010 nM
  TGI: 31.5 µM
NCI/ADR-RES ovarian
  GI50: 5770 nM
  TGI: 26 µM
OVCAR-3 ovarian
  GI50: 3160 nM
  TGI: 13.1 µM
OVCAR-4 ovarian
  GI50: 2860 nM
  TGI: 15.4 µM
OVCAR-5 ovarian
  GI50: 491 nM
  TGI: 12.2 µM
OVCAR-8 ovarian
  GI50: 4110 nM
  TGI: 86.1 µM
PC-3 prostate
  GI50: 0.627 µM
  TGI: 28.9 µM
RPMI-8226 leukemia
  GI50: 62.4 nM
  TGI: 4.04 µM
RXF 393 renal
  GI50: 1320 nM
  TGI: 3.71 µM
SF-268 CNS
  GI50: 1460 nM
  TGI: 4.94 µM
SF-295 CNS
  GI50: 3090 nM
  TGI: 18.4 µM
SF-539 CNS
  GI50: 2290 nM
  TGI: 6.72 µM
SK-MEL-2 melanoma
  GI50: 4490 nM
  TGI: 21800 nM
SK-MEL-28 melanoma
  GI50: 3010 nM
  TGI: 26000 nM
SK-MEL-5 melanoma
  GI50: 3200 nM
  TGI: 15.6 µM
SK-OV-3 ovarian
  GI50: 11400 nM
  TGI: 68.2 µM
SN12C renal
  GI50: 1500 nM
  TGI: 12.2 µM
SNB-75 CNS
  GI50: 1410 nM
  TGI: 4.54 µM
SR leukemia
  GI50: 307 nM
  TGI: 3.28 µM
SW-620 colon
  GI50: 166 nM
  TGI: 11.8 µM
T-47D breast
  GI50: 4150 nM
  TGI: > 100 µM
U251 CNS
  GI50: 1320 nM
  TGI: 28.2 µM
UACC-257 melanoma
  GI50: 5670 nM
  TGI: 39.2 µM
UACC-62 melanoma
  GI50: 2940 nM
  TGI: 19800 nM
UO-31 renal
  GI50: 670 nM
  TGI: 12.9 µM
